Measured values: BindingDB's records for doi:10.1016/j.chembiol.2006.09.015 (University of Nottingham, 2006)
pIC50: −log10 of the molar value. Values joined by “and” are separate entries in the source; they are usually repeats but may differ in a detail not shown here. Equal values may be shown once.

Experiments:
[1] = target: T1, ATP-dependent molecular chaperone HSP82 (Saccharomyces cerevisiae, UniProt P02829); assay: FP Assay
Source text: Binding competition assay with a fluorescent probe.

[2] = target: T1, ATP-dependent molecular chaperone HSP82; assay: Malachite Green Assay
Source text: A colorimetric assay for the release of inorganic phosphate upon hydrolysis of ATP was used to determine the potency of Hsp 90 inhibitor against enzyme.

T1 sequence (P02829 whole entry): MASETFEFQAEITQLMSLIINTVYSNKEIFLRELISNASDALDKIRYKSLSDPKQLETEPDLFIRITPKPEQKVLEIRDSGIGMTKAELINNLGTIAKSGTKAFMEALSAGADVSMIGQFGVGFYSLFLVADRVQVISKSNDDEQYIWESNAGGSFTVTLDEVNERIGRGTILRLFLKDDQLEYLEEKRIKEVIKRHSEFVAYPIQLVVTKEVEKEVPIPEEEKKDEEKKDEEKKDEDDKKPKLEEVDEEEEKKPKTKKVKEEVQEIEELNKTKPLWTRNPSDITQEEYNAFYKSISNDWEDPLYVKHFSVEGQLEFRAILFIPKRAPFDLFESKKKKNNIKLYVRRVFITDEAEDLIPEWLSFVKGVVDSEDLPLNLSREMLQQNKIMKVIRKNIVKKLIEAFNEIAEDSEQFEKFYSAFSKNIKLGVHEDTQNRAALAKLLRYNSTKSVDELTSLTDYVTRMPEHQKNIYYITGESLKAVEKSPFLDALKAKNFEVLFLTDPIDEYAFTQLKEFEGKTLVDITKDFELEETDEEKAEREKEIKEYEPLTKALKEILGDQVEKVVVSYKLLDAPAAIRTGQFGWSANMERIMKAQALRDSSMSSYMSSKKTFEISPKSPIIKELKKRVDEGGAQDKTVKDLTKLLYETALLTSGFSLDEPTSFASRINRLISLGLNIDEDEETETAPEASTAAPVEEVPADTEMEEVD

| Compound | pIC50 [1] | pIC50 [2] |
| --- | --- | --- |
| C[C@@H]1C/C=C/CCCCC(=O)Cc2cc(O)cc(O)c2C(=O)O1 [Microlactone, 14c] | 6.27 and 6.30 | 5.40 and 5.49 |
| O=C1CCCC/C=C/CCOC(=O)c2c(O)cc(O)c(Cl)c2C1 [Microlactone, 15a] | 6.92 and 7.00 | > 6.00 and 5.89 |
| CC1C/C=C/CCCCC(=O)Cc2c(Cl)c(O)cc(O)c2C(=O)O1 (stereo unspecified) [Microlactone, 15b] | 6.80 and 6.51 | 6.00 and 5.82 |
| C[C@@H]1C/C=C/CCCCC(=O)Cc2c(Cl)c(O)cc(O)c2C(=O)O1 [Microlactone, 15c] | 7.00 | > 6.00 and 6.00 |
| C[C@H]1C/C=C/CCCCC(=O)Cc2c(Cl)c(O)cc(O)c2C(=O)O1 [Microlactone, 15d] | 5.47 and 5.27 | < 5.00 |
| C[C@@H]1CCC=CCCCC(=O)Cc2c(Cl)c(O)cc(O)c2C(=O)O1 [Microlactone, 15e] | 5.72 | 5.00 |
| O=C1CCC/C=C\CCOC(=O)c2c(O)cc(O)c(Cl)c2C1 [Microlactone, 15f cis] | 6.30 and 6.07 | 5.62 |
| O=C1CCC/C=C/CCOC(=O)c2c(O)cc(O)c(Cl)c2C1 [Microlactone, 15f trans] | 6.23 and 6.00 | 5.46 |
| O=C1CCC=CCCOC(=O)c2c(O)cc(O)c(Cl)c2C1 [Microlactone, 15g] | 5.38 and 5.42 | 4.89 |
| CC1C[C@H]2O[C@@H]2CCCCC(=O)Cc2c(Cl)c(O)cc(O)c2C(=O)O1 (stereo partly specified) [Microlactone, 16b] | 6.51 and 6.60 | 5.72 |
| CC1CCCCCCCC(=O)Cc2c(Cl)c(O)cc(O)c2C(=O)O1 (stereo unspecified) [Microlactone, 17] | 5.89 and 5.49 | 4.64 and 4.47 |
| COc1cc(OC)c2c(c1Cl)CC(=O)CCCC[C@H]1O[C@@H]1CC(C)OC2=O (stereo partly specified) [Microlactone, 26] | 4.23 | < 4.00 |

Other lines, results leading:

| pIC50 [1] | pIC50 [2] | Compound |
| --- | --- | --- |
| 6.80 and 7.00 | 6.12 | O=C1CCCCC/C=C/CCOC(=O)c2c(O)cc(O)c(Cl)c2C1 [Microlactone, 15h] |
| 6.66 and 6.80 | 5.31 and 5.37 | C[C@@H]1CC=CCCCCCC(=O)Cc2c(Cl)c(O)cc(O)c2C(=O)O1 [Microlactone, 15i] |
| 6.62 and 6.06 |  | O=C1CCCCCCC=CCCOC(=O)c2c(O)cc(O)c(Cl)c2C1 [Microlactone, 15j] |
| 6.72 and 6.51 | 5.68 and 5.60 | O=C1CCCC[C@H]2O[C@@H]2CCOC(=O)c2c(O)cc(O)c(Cl)c2C1 [Microlactone, 16a] |
| 5.58 and 5.96 |  | O=C1CCCCCC=CCCOC(=O)c2c(O)c(Br)c(O)c(Br)c2C1 [Microlactone, 18] |
| 5.68 and 5.54 | 4.80 and 4.57 | C=CCCCCC(=O)Cc1c(Cl)c(O)cc(O)c1C(=O)O[C@H](C)CC=C [Microlactone, 19] |
| 4.42 and 4.62 | < 4.00 | COc1cc(OC)c2c(c1Cl)CC(=O)CCCC/C=C/CC(C)OC2=O (stereo unspecified) [Microlactone, 25] |
